pIC50: −log10 of the molar value. Each block holds one compound with its values, some of them ahead of it. Activity calls are given as the source filed them. The rule behind the calls is not given here.
How the values were obtained:
[1] = system: Olaparib-resistant HCT116; experiment: Antitumor activity against human Olaparib-resistant HCT116 cells xenografted in female Balb/c nude mouse assessed as reduction in tumor weight at 50 mg/kg/day, ip qd administered for 21 days in presence of crizotinib at 25 mg/kg/day, po qd; assay type: functional, organism-based; conditions: time 21.0 day
MDA-MB-231 [2] = experiment: Induction of apoptosis in human MDA-MB-231 cells assessed as late apoptotic cells at 1 uM incubated for 4 days in presence of crizotinib at 0.5 uM by Annexin V-FITC/PI staining based flow cytometry analysis (reference value: 0.81%); assay type: functional; conditions: time 4 day
MDA-MB-231 [3] = experiment: Induction of apoptosis in human MDA-MB-231 cells assessed as live cells at 1 uM incubated for 4 days by Annexin V-FITC/PI staining based flow cytometry analysis (reference value: 94.6%); assay type: functional; conditions: time 4 day
MDA-MB-231 [4] = experiment: Induction of apoptosis in human MDA-MB-231 cells assessed as early apoptotic cells at 1 uM incubated for 4 days in presence of crizotinib at 0.5 uM by Annexin V-FITC/PI staining based flow cytometry analysis (reference value: 3.88%); assay type: functional; conditions: time 4 day
MDA-MB-231 [5] = experiment: Induction of apoptosis in human MDA-MB-231 cells assessed as live cells at 1 uM incubated for 4 days in presence of crizotinib at 0.5 uM by Annexin V-FITC/PI staining based flow cytometry analysis (reference value: 94.6%); assay type: functional; conditions: time 4 day
MDA-MB-231 [6] = experiment: Antitumor activity against human MDA-MB-231 cells xenografted in female Balb/c nude mouse assessed as reduction in tumor weight at 50 mg/kg/day, ip qd administered for 28 days in presence of crizotinib at 25 mg/kg, po qd; assay type: functional, organism-based; conditions: time 28.0 day
MDA-MB-231 [7] = experiment: Induction of apoptosis in human MDA-MB-231 cells assessed as dead cells at 1 uM incubated for 4 days in presence of crizotinib at 0.5 uM by Annexin V-FITC/PI staining based flow cytometry analysis (reference value: 0.72%); assay type: functional; conditions: time 4 day
[8] = system: Olaparib-resistant HCT116; experiment: Antitumor activity against human Olaparib-resistant HCT116 cells xenografted in female Balb/c nude mouse assessed as reduction in tumor weight at 50 mg/kg/day, ip qd administered for 21 days; assay type: functional, organism-based; conditions: time 21.0 day
[9] = system: Olaparib-resistant HCT116; experiment: Antitumor activity against human Olaparib-resistant HCT116 cells xenografted in female Balb/c nude mouse assessed as tumor growth inhibition at 50 mg/kg/day, ip qd administered for 21 days relative to control; assay type: functional; conditions: time 21 day
MDA-MB-468 = experiment: Antiproliferative activity against human MDA-MB-468 cells harboring wild type BRCA1/2, HR-proficient and non-c-Met amplification assessed as inhibition of cell growth incubated for 7 days by MTT assay; assay type: functional, cell-based; conditions: MDA-MB-468, 168 h
[10] = Antiproliferative activity against human Olaparib-resistant HCC1937 cells harboring BRCA1 mutant and PARP1 overexpression assessed as inhibition of cell growth incubated for 7 days by MTT assay; assay type: functional, cell-based; conditions: Olaparib-resistant HCC1937, 168 h
MDA-MB-231 [11] = experiment: Induction of apoptosis in human MDA-MB-231 cells assessed as dead cells at 1 uM incubated for 4 days by Annexin V-FITC/PI staining based flow cytometry analysis (reference value: 0.72%); assay type: functional; conditions: time 4 day
MDA-MB-231 [12] = experiment: Antiproliferative activity against human MDA-MB-231 cells harboring wild type BRCA and c-Met amplification assessed as inhibition of cell growth incubated for 7 days by MTT assay; assay type: functional, cell-based; conditions: MDA-MB-231, 168 h
MDA-MB-231 [13] = experiment: Induction of apoptosis in human MDA-MB-231 cells assessed as early apoptotic cells at 1 uM incubated for 4 days by Annexin V-FITC/PI staining based flow cytometry analysis (reference value: 3.88%); assay type: functional; conditions: time 4 day
[14] = system: Olaparib-resistant HCT116; experiment: Antitumor activity against human Olaparib-resistant HCT116 cells xenografted in female Balb/c nude mouse assessed as tumor growth inhibition at 50 mg/kg/day, ip qd administered for 21 days in presence of crizotinib at 25 mg/kg/day, po qd relative to control; assay type: functional; conditions: time 21 day
MDA-MB-231 [15] = experiment: Antitumor activity against human MDA-MB-231 cells xenografted in female Balb/c nude mouse assessed as reduction in tumor weight at 50 mg/kg/day, ip qd administered for 28 days; assay type: functional, organism-based; conditions: time 28.0 day
[16] = system: Olaparib-resistant HCT116; experiment: Antiproliferative activity against human Olaparib-resistant HCT116 cells harboring BRCA2 mutant assessed as inhibition of cell growth incubated for 7 days by MTT assay; assay type: functional, cell-based; conditions: Olaparib-resistant HCT116, 168 h
MDA-MB-231 [17] = experiment: Induction of apoptosis in human MDA-MB-231 cells assessed as late apoptotic cells at 1 uM incubated for 4 days by Annexin V-FITC/PI staining based flow cytometry analysis (reference value: 0.81%); assay type: functional; conditions: time 4 day
[18] = system: Olaparib-resistant HCT116; experiment: Antitumor activity against human Olaparib-resistant HCT116 cells xenografted in female Balb/c nude mouse assessed as reduction in tumor weight at 25 mg/kg/day, po qd administered for 21 days in presence of olaparib at 50 mg/kg/day, ip qd; assay type: functional, organism-based; conditions: time 21.0 day
MDA-MB-231 [19] = experiment: Antitumor activity against human MDA-MB-231 cells xenografted in female Balb/c nude mouse assessed as tumor growth inhibition at 50 mg/kg/day, ip qd administered for 28 days relative to control; assay type: functional; conditions: time 28 day
MDA-MB-231 [20] = experiment: Antitumor activity against human MDA-MB-231 cells xenografted in female Balb/c nude mouse assessed as tumor growth inhibition at 12.5 mg/kg/day, ip qd administered for 28 days relative to control; assay type: functional; conditions: MDA-MB-231, 672 h, time 28 day, read-out: TGI
[21] = Toxicity in female Balb/c nude mouse xenografted with human Olaparib-resistant HCT116 cells assessed as body weight loss at 25 to 100 mg/kg, ip qd administered for 21 days; assay type: organism-based, HCT-116; conditions: in vivo, 504 h, dose 25-100 mg/kg, time 21 day
[22] = Cmax in male SPF-ICR mouse at 10 mg/kg, ip measured upto 24 hrs by LC-MS/MS analysis; assay type: ADME, organism-based; conditions: in vivo
[23] = Tmax in male SPF-ICR mouse at 10 mg/kg, ip measured upto 24 hrs by LC-MS/MS analysis; assay type: ADME, organism-based; conditions: in vivo
MDA-MB-231 [24] = experiment: Antitumor activity against human MDA-MB-231 cells xenografted in female Balb/c nude mouse assessed as tumor growth inhibition at 25 mg/kg/day, ip qd administered for 28 days relative to control; assay type: functional; conditions: MDA-MB-231, 672 h, time 28 day, read-out: TGI
[25] = MRT (0 to infinity) in male SPF-ICR mouse at 10 mg/kg, ip measured upto 24 hrs by LC-MS/MS analysis; assay type: ADME, organism-based; conditions: in vivo
[26] = system: Olaparib-resistant HCT116; experiment: Antitumor activity against human Olaparib-resistant HCT116 cells xenografted in female Balb/c nude mouse assessed as tumor growth inhibition at 25 mg/kg/day, ip qd administered for 21 days relative to control; assay type: functional; conditions: Olaparib-resistant HCT116, 504 h, time 21 day, read-out: TGI
[27] = AUC (0 to infinity) in male SPF-ICR mouse at 10 mg/kg, ip measured upto 24 hrs by LC-MS/MS analysis; assay type: ADME, organism-based; conditions: in vivo
[28] = Toxicity in female Balb/c nude mouse xenografted with human Olaparib-resistant HCT116 cells assessed as adverse effects at 25 to 100 mg/kg, ip qd administered for 21 days; assay type: organism-based, HCT-116; conditions: in vivo, 504 h, dose 25-100 mg/kg, time 21 day
[29] = system: Olaparib-resistant HCT116; experiment: Antitumor activity against human Olaparib-resistant HCT116 cells xenografted in female Balb/c nude mouse assessed as tumor growth inhibition at 100 mg/kg/day, ip qd administered for 21 days relative to control; assay type: functional; conditions: Olaparib-resistant HCT116, 504 h, time 21 day, read-out: TGI
[30] = system: Olaparib-resistant HCT116; experiment: Antitumor activity against human Olaparib-resistant HCT116 cells xenografted in female Balb/c nude mouse assessed as tumor growth inhibition at 5 mg/kg/day, iv qd administered for 21 days relative to control; assay type: functional; conditions: Olaparib-resistant HCT116, 504 h, time 21 day, read-out: TGI
[31] = Toxicity in female Balb/c nude mouse xenografted with human MDA-MB-231 cells assessed as adverse effects at 12.5 to 50 mg/kg, ip qd administered for 28 days; assay type: organism-based; conditions: in vivo, 672 h, dose 12.5-50 mg/kg, time 28 day
[32] = Toxicity in female Balb/c nude mouse xenografted with human MDA-MB-231 cells assessed as body weight loss at 12.5 to 50 mg/kg, ip qd administered for 28 days; assay type: organism-based; conditions: in vivo, 672 h, dose 12.5-50 mg/kg, time 28 day
[33] = AUC (0 to t) in male SPF-ICR mouse at 10 mg/kg, ip measured upto 24 hrs by LC-MS/MS analysis; assay type: ADME, organism-based; conditions: in vivo
[34] = MRT (0 to t) in male SPF-ICR mouse at 10 mg/kg, ip measured upto 24 hrs by LC-MS/MS analysis; assay type: ADME, organism-based; conditions: in vivo
[35] = Clearance in male SPF-ICR mouse at 10 mg/kg, ip measured upto 24 hrs by LC-MS/MS analysis; assay type: ADME, organism-based; conditions: in vivo
[36] = Half life in male SPF-ICR mouse at 10 mg/kg, ip measured upto 24 hrs by LC-MS/MS analysis; assay type: ADME, organism-based; conditions: in vivo

pIC50 (MDA-MB-468): 5.03 | pIC50 (MDA-MB-231 [12]): 4.51 | pIC50 [16]: 4.29
Compound: O=C(c1cc(Cc2n[nH]c(=O)c3ccccc23)ccc1F)N1CCN(C(=O)C2CC2)CC1 [OLAPARIB]
Activity [1]: Active | Activity (MDA-MB-231 [2]): 6.57% | Activity (MDA-MB-231 [3]): 88.9% | Activity (MDA-MB-231 [4]): 7.12% | Activity (MDA-MB-231 [5]): 76.9% | Activity (MDA-MB-231 [6]): Active | Activity (MDA-MB-231 [7]): 9.45% | Activity [8]: Active | TGI [9]: 26% | pIC50 [10]: 4.72 | Activity (MDA-MB-231 [11]): 4.86% | Activity (MDA-MB-231 [13]): 3.77% | TGI [14]: 48% | Activity (MDA-MB-231 [15]): Active | Activity (MDA-MB-231 [17]): 2.48% | Activity [18]: Active | TGI (MDA-MB-231 [19]): 27%

Compound: Cl.O=C(c1cc(Cc2n[nH]c(=O)c3ccccc23)ccc1F)N1CCN(c2ccc3c(OCCn4nc(-c5cccnc5)ccc4=O)ccnc3c2)CC1
inhibition in vivo at 12.5 mg/kg/day (MDA-MB-231 [20]): 49% | Activity [21]: Non-Toxic | Cmax [22]: 152 ng/mL | Tmax [23]: 0.25 h | inhibition in vivo at 25 mg/kg/day (MDA-MB-231 [24]): 60% | MRT inf [25]: 1.77 h | inhibition in vivo at 25 mg/kg/day [26]: 62% | AUC(0-inf) [27]: 96.7 ng·h/mL | Activity [28]: Non-Toxic | inhibition in vivo at 100 mg/kg/day [29]: 70% | inhibition in vivo at 50 mg/kg/day ([9]; Mus musculus, Olaparib-resistant HCT116, 504 h, read-out: TGI): 64% | inhibition in vivo at 5 mg/kg/day [30]: 59% | Activity [31]: Non-Toxic | Activity [32]: Non-Toxic | AUC(0-t) at 24 h [33]: 95.4 ng·h/mL | MRT last at 24 h [34]: 1.67 h | CL/F [35]: 2020 mL/min/kg | half-life [36]: 1.42 h | inhibition in vivo at 50 mg/kg/day (MDA-MB-231 [19]; Mus musculus, MDA-MB-231, 672 h, read-out: TGI): 77%

Reference: ChEMBL document CHEMBL5518224, “Rational Design of PARP1/c-Met Dual Inhibitors for Overcoming PARP1 Inhibitor Resistance Induced by c-Met Overexpression” (J Med Chem, 2024)
